Here are results for one molecule from BindingDB's records for patent US20260042754 (Nodus Oncology, 2026).

The experiment addresses Poly(ADP-ribose) glycohydrolase (Homo sapiens, UniProt Q86W56). In words: PARG Enzymatic Assay. The protocol: Inhibition of PARG enzymatic activity by compounds was determined as follows: Recombinant His-tagged human PARG protein expressed in Sf21 insect cells (Adipogen AG, #40T-0022) was aliquoted and stored at −80° C. until use. The artificial enzyme substrate 4-(trifluoromethyl)umbelliferone (TFMU)-ADPr was prepared essentially as described (Drown B S et al, Cell Chemical Biology 2018) and stored at −20° C. as 10 mM stock solutions in DMSO (dimethyl sulfoxide) until use. For reactions, typical final concentration of the enzyme was 1 nM and of the TFMU-ADPr 200 μM. Reactions were carried out in black 384-well low volume round bottom assay plates (Corning, #4514) in a final volume of 10 μL. To this end, PARG was diluted to 1.67 nM in reaction buffer (50 mM K2HPO4, 50 mM KCl, 10 mM β-mercaptoethanol, pH 7.4) and 6 μL were dispensed per assay well using a multichannel pipette. […] Fluorescence intensity signals were then measured after 30 minutes on an EnVision microplate reader (PerkinElmer) using 380/10 nm and 535/25 nm filters for the excitation and emission, respectively (gain: 150). […]

Molecules are shown by their SMILES.

Chain of Poly(ADP-ribose) glycohydrolase (Q86W56 whole entry): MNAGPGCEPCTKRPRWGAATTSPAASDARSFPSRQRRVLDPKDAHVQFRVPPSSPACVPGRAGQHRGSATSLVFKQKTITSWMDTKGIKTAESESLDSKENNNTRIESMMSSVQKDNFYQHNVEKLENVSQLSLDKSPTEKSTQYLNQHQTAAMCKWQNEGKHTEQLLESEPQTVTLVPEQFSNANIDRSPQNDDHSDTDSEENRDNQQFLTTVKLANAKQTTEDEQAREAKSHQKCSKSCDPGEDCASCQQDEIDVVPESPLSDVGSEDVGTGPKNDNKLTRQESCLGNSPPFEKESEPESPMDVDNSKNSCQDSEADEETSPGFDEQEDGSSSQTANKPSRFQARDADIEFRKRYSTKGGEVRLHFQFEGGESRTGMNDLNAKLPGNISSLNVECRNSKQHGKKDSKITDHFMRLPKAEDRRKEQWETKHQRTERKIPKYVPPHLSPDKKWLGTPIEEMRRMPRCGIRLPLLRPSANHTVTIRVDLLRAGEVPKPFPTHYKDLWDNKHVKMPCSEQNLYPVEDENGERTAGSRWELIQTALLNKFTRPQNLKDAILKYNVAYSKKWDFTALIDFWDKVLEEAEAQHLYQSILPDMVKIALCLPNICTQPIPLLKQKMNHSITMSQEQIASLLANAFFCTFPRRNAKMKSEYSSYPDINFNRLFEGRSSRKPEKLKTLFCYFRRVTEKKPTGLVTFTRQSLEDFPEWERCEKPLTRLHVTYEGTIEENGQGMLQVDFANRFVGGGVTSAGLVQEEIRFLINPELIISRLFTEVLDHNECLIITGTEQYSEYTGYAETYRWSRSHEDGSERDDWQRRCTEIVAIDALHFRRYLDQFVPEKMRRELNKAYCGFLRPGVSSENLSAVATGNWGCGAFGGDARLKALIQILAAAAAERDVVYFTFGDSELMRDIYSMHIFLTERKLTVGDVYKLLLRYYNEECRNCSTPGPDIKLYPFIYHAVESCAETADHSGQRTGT

By IC50 is commonly meant the concentration that gives 50% inhibition. In turn, `CO/N=c1\[nH]c2c(N3CCN(C(=O)C4(C(F)(F)F)CC4)[C@H](C)C3)cc(S(=O)(=O)NC3(C)CC3)cc2c(=O)n1Cc1cnn(C)c1` [US20260042754, Example 32] came in with an IC50 below 30 nM.
